Assay results published in the OligoGym collection.
HELM strings list units from the 5' end as sugar, base in round brackets, then linkage (d deoxyribose, r ribose, m 2'-O-methyl, p phosphodiester). Strings are as the collection lists them; they lack the last nucleoside at the 3' end of the tested compound. [moe] = 2'-O-(2-methoxyethyl) (MOE); [sp] = phosphorothioate linkage; [m5C] = 5-methylcytosine

Each substance was assayed against ATXN2 (assay: mouse, dose not given). Conditions: ASO.
In the case of “RNA1{[moe]([m5C])[sp].[moe](A)p.[moe](G)p.[moe](T)p.[moe](G)p.d([m5C])[sp].d([m5C])[sp].d(T)[sp].d(T)[sp].d(T)[sp].d(A)[sp].d([m5C])[sp].d([m5C])[sp].d([m5C])[sp].d([m5C])[sp].[moe](T)p.[moe](T)p.[moe](G)[sp].[moe](A)}$$$$ (last 3' nucleoside missing)”, the 3 h FOB score is reported as 5.25 score 0-7. For “RNA1{[moe]([m5C])[sp].[moe](A)p.[moe](G)p.[moe]([m5C])p.[moe](A)p.d(T)[sp].d(G)[sp].d(A)[sp].d(T)[sp].d([m5C])[sp].d(T)[sp].d(T)[sp].d(G)[sp].d(T)[sp].d(G)[sp].[moe](T)p.[moe](A)p.[moe](T)[sp].[moe](A)}$$$$ (last 3' nucleoside missing)”, the 3 h FOB score was 2.25 score 0-7. With “RNA1{[moe]([m5C])[sp].[moe](A)p.[moe](G)p.[moe]([m5C])p.[moe](T)p.d([m5C])[sp].d(T)[sp].d(G)[sp].d(T)[sp].d(T)[sp].d([m5C])[sp].d(G)[sp].d(A)[sp].d(T)[sp].d(G)[sp].[moe]([m5C])p.[moe](A)p.[moe](G)[sp].[moe](G)}$$$$ (last 3' nucleoside missing)” the 3 h FOB score was 6.25 score 0-7. “RNA1{[moe]([m5C])[sp].[moe](A)p.[moe](T)p.[moe](A)p.[moe]([m5C])p.d(G)[sp].d([m5C])[sp].d(G)[sp].d(G)[sp].d(T)[sp].d(G)[sp].d(A)[sp].d(A)[sp].d(T)[sp].d(T)[sp].[moe]([m5C])p.[moe](T)p.[moe](G)[sp].[moe](T)}$$$$ (last 3' nucleoside missing)” was tested, and the 3 h FOB score was 4 score 0-7. “RNA1{[moe]([m5C])[sp].[moe](A)p.[moe](T)p.[moe](T)p.[moe](T)p.d(T)[sp].d(G)[sp].d(A)[sp].d(A)[sp].d(T)[sp].d(T)[sp].d(A)[sp].d([m5C])[sp].d(A)[sp].d(A)[sp].[moe](T)p.[moe](G)p.[moe]([m5C])[sp].[moe](G)}$$$$ (last 3' nucleoside missing)” was tested, and the 3 h FOB score was 1 score 0-7. With “RNA1{[moe]([m5C])[sp].[moe](A)p.[moe]([m5C])p.[moe](A)[sp].[moe](G)[sp].d(T)[sp].d(T)[sp].d(T)[sp].d([m5C])[sp].d(A)[sp].d([m5C])[sp].d(T)[sp].d(A)[sp].d(G)[sp].d(G)[sp].[moe](T)p.[moe](T)p.[moe]([m5C])[sp].[moe](T)}$$$$ (last 3' nucleoside missing)” the 3 h FOB score was 4 score 0-7. In the case of “RNA1{[moe]([m5C])[sp].[moe](A)p.[moe]([m5C])p.[moe](A)p.[moe](G)[sp].d(T)[sp].d(T)[sp].d(T)[sp].d([m5C])[sp].d(A)[sp].d([m5C])[sp].d(T)[sp].d(A)[sp].d(G)[sp].d(G)[sp].[moe](T)p.[moe](T)p.[moe]([m5C])[sp].[moe](T)}$$$$ (last 3' nucleoside missing)”, the 3 h FOB score is reported as 4.75 score 0-7. “RNA1{[moe]([m5C])[sp].[moe](A)p.[moe]([m5C])p.[moe](A)p.[moe](G)p.d(T)[sp].d(T)[sp].d(T)[sp].d([m5C])[sp].d(A)[sp].d([m5C])[sp].d(T)[sp].d(A)[sp].d(G)[sp].d(G)[sp].[moe](T)p.[moe](T)p.[moe]([m5C])[sp].[moe](T)}$$$$ (last 3' nucleoside missing)” gave a 3 h FOB score of 4.25 score 0-7. With “RNA1{[moe]([m5C])[sp].[moe](A)p.[moe]([m5C])p.[moe](A)p.[moe]([m5C])p.d(A)[sp].d([m5C])[sp].d(T)[sp].d(T)[sp].d(T)[sp].d(A)[sp].d(A)[sp].d(A)[sp].d(T)[sp].d(A)[sp].[moe]([m5C])p.[moe](A)p.[moe](G)[sp].[moe](G)}$$$$ (last 3' nucleoside missing)” the 3 h FOB score was 6.5 score 0-7. Work on “RNA1{[moe]([m5C])[sp].[moe](G)p.[moe](G)p.[moe](A)p.[moe](T)p.d(T)[sp].d(G)[sp].d(T)[sp].d(T)[sp].d(T)[sp].d(T)[sp].d([m5C])[sp].d(T)[sp].d(T)[sp].d([m5C])[sp].[moe](A)p.[moe](T)p.[moe](T)[sp].[moe](A)}$$$$ (last 3' nucleoside missing)” yielded a 3 h FOB score of 1 score 0-7. Work on “RNA1{[moe]([m5C])[sp].[moe](G)p.[moe](T)p.[moe](A)p.[moe](T)[sp].d(G)[sp].d(T)[sp].d(T)[sp].d(T)[sp].d(G)[sp].d(T)[sp].d([m5C])[sp].d(T)[sp].[moe](G)p.[moe](T)p.[moe]([m5C])[sp].[moe](T)}$$$$ (last 3' nucleoside missing)” yielded a 3 h FOB score of 6 score 0-7. Work on “RNA1{[moe]([m5C])[sp].[moe](G)p.[moe](T)p.[moe](A)p.[moe](T)p.[moe](G)p.d(T)[sp].d(T)[sp].d(T)[sp].d(G)[sp].d(T)[sp].d([m5C])[sp].d(T)[sp].d(G)[sp].d(T)[sp].d([m5C])[sp].[moe](T)p.[moe](T)[sp].[moe](A)}$$$$ (last 3' nucleoside missing)” yielded a 3 h FOB score of 6.75 score 0-7. For “RNA1{[moe]([m5C])[sp].[moe](G)p.[moe](T)p.[moe](A)p.[moe](T)p.d(G)[sp].d(T)[sp].d(T)[sp].d(T)[sp].d(G)[sp].d(T)[sp].d([m5C])[sp].d(T)[sp].d(G)[sp].d(T)[sp].[moe]([m5C])p.[moe](T)p.[moe](T)[sp].[moe](A)}$$$$ (last 3' nucleoside missing)”, the 3 h FOB score was 6.25 score 0-7. “RNA1{[moe]([m5C])[sp].[moe](G)p.[moe](T)p.[moe](A)p.d(T)[sp].d(G)[sp].d(T)[sp].d(T)[sp].d(T)[sp].d(G)[sp].d(T)[sp].d([m5C])[sp].d(T)[sp].d(G)[sp].[moe](T)p.[moe]([m5C])p.[moe](T)p.[moe](T)[sp].[moe](A)}$$$$ (last 3' nucleoside missing)” gave a 3 h FOB score of 4 score 0-7. With “RNA1{[moe]([m5C])[sp].[moe](G)p.[moe](T)p.[moe](G)p.[moe](G)p.d(T)[sp].d(G)[sp].d(G)[sp].d(T)[sp].d(G)[sp].d(T)[sp].d(G)[sp].d([m5C])[sp].d(G)[sp].d([m5C])[sp].[moe](A)p.[moe](T)p.[moe](G)[sp].[moe](T)}$$$$ (last 3' nucleoside missing)” the 3 h FOB score was 6.25 score 0-7. For “RNA1{[moe]([m5C])[sp].[moe](G)p.[moe](T)p.[moe](T)p.[moe](T)p.d([m5C])[sp].d([m5C])[sp].d(T)[sp].d(T)[sp].d([m5C])[sp].d(T)[sp].d([m5C])[sp].d([m5C])[sp].d([m5C])[sp].d(T)[sp].[moe](T)p.[moe](T)p.[moe](G)[sp].[moe](A)}$$$$ (last 3' nucleoside missing)”, the 3 h FOB score was 0 score 0-7. “RNA1{[moe]([m5C])[sp].[moe](G)p.[moe]([m5C])p.[moe](G)p.[moe](G)p.d(T)[sp].d(G)[sp].d(A)[sp].d(A)[sp].d(T)[sp].d(T)[sp].d([m5C])[sp].d(T)[sp].d(G)[sp].d(T)[sp].[moe]([m5C])p.[moe](T)p.[moe]([m5C])[sp].[moe]([m5C])}$$$$ (last 3' nucleoside missing)” showed a 3 h FOB score of 1 score 0-7. In the case of “RNA1{[moe]([m5C])[sp].[moe](T)[sp].[moe](G)[sp].[moe](G)[sp].[moe](T)[sp].d(A)[sp].d([m5C])[sp].d(A)[sp].d(G)[sp].d(T)[sp].d(T)[sp].d(G)[sp].d([m5C])[sp].d(T)[sp].d(G)[sp].[moe]([m5C])[sp].[moe](T)[sp].[moe](G)[sp].[moe]([m5C])}$$$$ (last 3' nucleoside missing)”, the 3 h FOB score is reported as 7 score 0-7. Work on “RNA1{[moe]([m5C])[sp].[moe](T)[sp].[moe]([m5C])[sp].[moe](T)[sp].[moe]([m5C])[sp].d([m5C])[sp].d(A)[sp].d(T)[sp].d(T)[sp].d(A)[sp].d(T)[sp].d(T)[sp].d(T)[sp].d([m5C])[sp].d(T)[sp].[moe](T)[sp].[moe]([m5C])[sp].[moe](A)[sp].[moe]([m5C])}$$$$ (last 3' nucleoside missing)” yielded a 3 h FOB score of 7 score 0-7. Work on “RNA1{[moe]([m5C])[sp].[moe](T)p.[moe](A)p.[moe](A)p.[moe]([m5C])[sp].d(T)[sp].d(G)[sp].d(G)[sp].d(T)[sp].d(T)[sp].d(T)[sp].d(G)[sp].d([m5C])[sp].[moe]([m5C])p.[moe]([m5C])p.[moe](T)[sp].[moe](T)}$$$$ (last 3' nucleoside missing)” yielded a 3 h FOB score of 7 score 0-7. “RNA1{[moe]([m5C])[sp].[moe](T)p.[moe](A)p.[moe](G)p.[moe](G)p.d(T)[sp].d(G)[sp].d(A)[sp].d(T)[sp].d(G)[sp].d(T)[sp].d(T)[sp].d(T)[sp].d([m5C])[sp].d(A)[sp].[moe](T)p.[moe](T)p.[moe](G)[sp].[moe](G)}$$$$ (last 3' nucleoside missing)” showed a 3 h FOB score of 7 score 0-7. Substance “RNA1{[moe]([m5C])[sp].[moe](T)p.[moe](A)p.[moe](T)p.[moe](T)[sp].d(T)[sp].d([m5C])[sp].d(T)[sp].d(T)[sp].d(T)[sp].d(G)[sp].d(T)[sp].d([m5C])[sp].[moe]([m5C])p.[moe](A)p.[moe](G)[sp].[moe](G)}$$$$ (last 3' nucleoside missing)” has a 3 h FOB score of 3.25 score 0-7. Work on “RNA1{[moe]([m5C])[sp].[moe](T)p.[moe](A)p.[moe](T)p.[moe]([m5C])[sp].d(A)[sp].d(T)[sp].d([m5C])[sp].d(A)[sp].d(T)[sp].d(T)[sp].d(T)[sp].d(T)[sp].[moe]([m5C])p.[moe]([m5C])p.[moe](A)[sp].[moe](G)}$$$$ (last 3' nucleoside missing)” yielded a 3 h FOB score of 1 score 0-7. For “RNA1{[moe]([m5C])[sp].[moe](T)p.[moe](A)p.[moe](T)p.[moe]([m5C])p.d(A)[sp].d(T)[sp].d([m5C])[sp].d(A)[sp].d(T)[sp].d(T)[sp].d(T)[sp].d(T)[sp].d([m5C])[sp].d([m5C])[sp].[moe](A)p.[moe](G)p.[moe](G)[sp].[moe](G)}$$$$ (last 3' nucleoside missing)”, the 3 h FOB score was 1 score 0-7. Work on “RNA1{[moe]([m5C])[sp].[moe](T)p.[moe](G)p.[moe](G)p.[moe](A)[sp].d(T)[sp].d(T)[sp].d([m5C])[sp].d(T)[sp].d(G)[sp].d(T)[sp].d(A)[sp].d([m5C])[sp].[moe](T)p.[moe](T)p.[moe](T)[sp].[moe](T)}$$$$ (last 3' nucleoside missing)” yielded a 3 h FOB score of 3.75 score 0-7. In the case of “RNA1{[moe]([m5C])[sp].[moe](T)p.[moe](G)p.[moe](G)p.[moe](A)p.[moe](T)p.d(T)[sp].d([m5C])[sp].d(T)[sp].d(G)[sp].d(T)[sp].d(A)[sp].d([m5C])[sp].d(T)[sp].d(T)[sp].d(T)[sp].[moe](T)p.[moe]([m5C])[sp].[moe](T)}$$$$ (last 3' nucleoside missing)”, the 3 h FOB score is reported as 1 score 0-7.
